Each compound was assayed against NLRP3 (Homo sapiens, UniProt Q96P20) (assay: THP-1 cells pyroptosis assay). Settings: LPS 1.0 μg/ml, nigericin 5 μM, resazurin readout, 10 μM top dose (Example 2: top dose of 30 μM).
Type: cell-based
Set-up: Seed THP-1 cells (25,000 cells/well) containing 1.0 μg/ml LPS; host or cells: THP-1
Description: THP-1 cells (ATCC #TIB-202) were grown in RPMI containing L-glutamine (Gibco #11835) supplemented with imM sodium pyruvate (Sigma #S8636) and penicillin (100 units/ml)/streptomycin (0.1 mg/ml) (Sigma #P4333) in 10% Fetal Bovine Serum (FBS) (Sigma #F0804). The cells were routinely passaged and grown to confluency (˜10^6 cells/ml). On the day of the experiment, THP-1 cells were harvested and resuspended into RPMI medium (without FBS). The cells were then counted and viability (>90%) checked by Trypan blue (Sigma #T8154). Appropriate dilutions were made to give a concentration of 625,000 cells/ml. To this diluted cell solution was added LPS (Sigma #L4524) to give a 1 μg/ml Final Assay Concentration (FAC). 40 μl of the final preparation was aliquoted into each well of a 96-well plate. The plate thus prepared was used for compound screening.
The following method step-by-step assay was followed for compound screening. • 1. Seed THP-1 cells (25,000 cells/well) containing 1.0 μg/ml LPS in 40 μl of RPMI medium (without FBS) in 96-well, black walled, clear bottom cell culture plates coated with poly-D-lysine (VWR #734-0317) • 2. Add 5 μl compound (8 points four-fold dilution or 8 points half-log dilution, with 10 μM top dose, unless stated otherwise) or vehicle (DMSO 0.1% FAC) to the appropriate wells • 3. Incubate for 3 hrs at 37° C. and 5% CO2 • 4. Add 5 μl nigericin (Sigma #N7143) (FAC 5 μM) to all wells • 5. Incubate for 1 hr at 37° C. and 5% CO2 • 6. At the end of the incubation period, spin plates at 300×g for 3 mins and remove supernatant • 7. Then add 50 μl of resazurin (Sigma #R^7017) (FAC 100 μM resazurin in RPMI medium without FBS) and incubate plates for a further 1-2 hrs at 37° C. and 5% CO2 • 8. Plates were read in an Envision reader at Ex 560 nm and Em 590 nm • 9. IC50 data is fitted to a non-linear regression equation (log inhibitor vs response-variable slope 4-parameters)

Chain of NLRP3 (Q96P20 whole entry): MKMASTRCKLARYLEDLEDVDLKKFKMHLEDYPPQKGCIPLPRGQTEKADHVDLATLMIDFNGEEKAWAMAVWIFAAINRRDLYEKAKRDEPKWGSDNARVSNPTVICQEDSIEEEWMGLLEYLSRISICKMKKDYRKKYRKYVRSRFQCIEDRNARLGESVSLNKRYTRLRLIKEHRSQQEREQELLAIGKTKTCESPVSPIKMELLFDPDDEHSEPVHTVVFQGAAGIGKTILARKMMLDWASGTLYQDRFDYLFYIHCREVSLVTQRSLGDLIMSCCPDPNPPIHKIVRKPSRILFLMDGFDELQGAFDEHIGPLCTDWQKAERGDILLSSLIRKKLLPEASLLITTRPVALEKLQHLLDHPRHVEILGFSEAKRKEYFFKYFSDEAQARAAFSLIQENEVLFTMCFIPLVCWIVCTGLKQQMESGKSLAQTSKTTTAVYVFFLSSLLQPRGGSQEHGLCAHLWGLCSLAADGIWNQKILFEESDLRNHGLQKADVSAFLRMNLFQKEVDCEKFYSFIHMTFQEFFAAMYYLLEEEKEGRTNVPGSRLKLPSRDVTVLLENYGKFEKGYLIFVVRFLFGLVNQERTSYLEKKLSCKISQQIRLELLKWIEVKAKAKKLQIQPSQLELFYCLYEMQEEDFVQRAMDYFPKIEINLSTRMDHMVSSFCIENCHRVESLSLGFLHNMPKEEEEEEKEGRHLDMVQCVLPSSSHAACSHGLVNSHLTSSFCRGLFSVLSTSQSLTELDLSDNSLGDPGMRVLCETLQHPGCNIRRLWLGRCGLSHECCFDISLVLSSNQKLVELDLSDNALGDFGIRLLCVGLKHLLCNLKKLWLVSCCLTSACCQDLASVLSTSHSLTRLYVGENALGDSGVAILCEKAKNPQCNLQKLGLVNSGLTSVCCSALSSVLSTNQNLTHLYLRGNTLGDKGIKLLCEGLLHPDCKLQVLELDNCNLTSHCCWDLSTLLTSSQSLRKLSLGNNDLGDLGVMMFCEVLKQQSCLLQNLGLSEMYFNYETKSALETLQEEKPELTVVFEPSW

| SMILES | IC50 [µM] |
| --- | --- |
| Cc1noc(CS(=O)(=O)c2nnc(Nc3c4c(cc5c3CCC5)CCC4)[nH]2)n1 [Example 70, N-(1,2,3,5,6,7-hexahydro-s-indacen-4-yl)-3-(((3-methyl-1,2,4-oxadiazol-5-yl)methyl)sulfonyl)-1H-1,2,4-triazol-5-amine] | ≤ 5 |
| O=S(=O)(Cc1ccccn1)c1nnc(Nc2c3c(cc4c2CCC4)CCC3)[nH]1 [Example 71, N-(1,2,3,5,6,7-hexahydro-s-indacen-4-yl)-3-((pyridin-2-ylmethyl)sulfonyl)-1H-1,2,4-triazol-5-amine] | ≤ 10 |
| O=S(=O)(Cc1ccncc1)c1nnc(Nc2c3c(cc4c2CCC4)CCC3)[nH]1 [Example 72, N-(1,2,3,5,6,7-hexahydro-s-indacen-4-yl)-3-((pyridin-4-ylmethyl)sulfonyl)-1H-1,2,4-triazol-5-amine] | ≤ 10 |
| O=S(=O)(Cc1cccnc1)c1nnc(Nc2c3c(cc4c2CCC4)CCC3)[nH]1 [Example 73, N-(1,2,3,5,6,7-hexahydro-s-indacen-4-yl)-3-((pyridin-3-ylmethyl)sulfonyl)-1H-1,2,4-triazol-5-amine] | ≤ 10 |
| CN(C)c1cccc(CS(=O)(=O)c2nnc(Nc3c4c(cc5c3CCC5)CCC4)[nH]2)c1 [Example 74, 3-((3-(dimethylamino)benzyl)sulfonyl)-N-(1,2,3,5,6,7-hexahydro-s-indacen-4-yl)-1H-1,2,4-triazol-5-amine] | ≤ 5 |
| CCN(CC)CCCS(=O)(=O)c1nnc(Nc2c(-c3ccccc3)cc(F)c3c2CCC3)[nH]1 [Example 78, 5-((3-(diethylamino)propyl)sulfonyl)-N-(7-fluoro-5-phenyl-2,3-dihydro-1H-inden-4-yl)-4H-1,2,4-triazol-3-amine] | ≤ 10 |
| CC(C)CCNS(=O)(=O)c1nnc(Nc2c3c(cc4c2CCC4)CCC3)[nH]1 [Example 82, 5-((1,2,3,5,6,7-hexahydro-s-indacen-4-yl)amino)-N-isopentyl-1H-1,2,4-triazole-3-sulfonamide] | ≤ 10 |
| COCCNS(=O)(=O)c1nnc(Nc2c3c(cc4c2CCC4)CCC3)[nH]1 [Example 83, 5-((1,2,3,5,6,7-hexahydro-s-indacen-4-yl)amino)-N-(2-methoxyethyl)-4H-1,2,4-triazole-3-sulfonamide] | ≤ 10 |
| CN1CCC(NS(=O)(=O)c2nnc(Nc3c4c(cc5c3CCC5)CCC4)[nH]2)C1 (centres unmarked) [Example 84, 5-((1,2,3,5,6,7-hexahydro-s-indacen-4-yl)amino)-N-(1-methylpyrrolidin-3-yl)-4H-1,2,4-triazole-3-sulfonamide] | ≤ 5 |
| O=S(=O)(Nc1ccccc1)c1nnc(Nc2c3c(cc4c2CCC4)CCC3)[nH]1 [Example 85, 5-((1,2,3,5,6,7-hexahydro-s-indacen-4-yl)amino)-N-phenyl-4H-1,2,4-triazole-3-sulfonamide] | ≤ 10 |
| O=S(=O)(NCc1ccccc1)c1nnc(Nc2c3c(cc4c2CCC4)CCC3)[nH]1 [Example 86, N-benzyl-5-((1,2,3,5,6,7-hexahydro-s-indacen-4-yl)amino)-4H-1,2,4-triazole-3-sulfonamide] | ≤ 5 |
| CN1CC(CNS(=O)(=O)c2nnc(Nc3c4c(cc5c3CCC5)CCC4)[nH]2)C1 [Example 88, 5-((1,2,3,5,6,7-hexahydro-s-indacen-4-yl)amino)-N-((1-methazetidin-3-yl)methyl)-4H-1,2,4-triazole-3-sulfonamide] | ≤ 5 |
| CN1CCC(N(C)S(=O)(=O)c2nnc(Nc3c4c(cc5c3CCC5)CCC4)[nH]2)CC1 [Example 90, 5-((1,2,3,5,6,7-hexahydro-s-indacen-4-yl)amino)-N-methyl-N-(1-methylpiperidin-4-yl)-4H-1,2,4-triazole-3-sulfonamide] | ≤ 10 |
| CN1CCC(CN(C)S(=O)(=O)c2nnc(Nc3c4c(cc5c3CCC5)CCC4)[nH]2)C1 (centres unmarked) [Example 92, 5-((1,2,3,5,6,7-hexahydro-s-indacen-4-yl)amino)-N-methyl-N-((1-methylpyrrolidin-3-yl)methyl)-4H-1,2,4-triazole-3-sulfonamide] | ≤ 10 |
